What was measured:
PIT/PPIR system [1] = molecular target: T1, PIT/PPIR system (Streptomyces coelicolor, UniProt Q9ADN3); experiment: Dose-response of PI-dependent SEAP expression in CHO-PIT1-SEAP; format: cell-based; conditions: 48 h
T1 construct: pMF156/pTWIN in CHO cells, PPIR-SEAP or GFP reporter
T1 sequence (Q9ADN3 1-252): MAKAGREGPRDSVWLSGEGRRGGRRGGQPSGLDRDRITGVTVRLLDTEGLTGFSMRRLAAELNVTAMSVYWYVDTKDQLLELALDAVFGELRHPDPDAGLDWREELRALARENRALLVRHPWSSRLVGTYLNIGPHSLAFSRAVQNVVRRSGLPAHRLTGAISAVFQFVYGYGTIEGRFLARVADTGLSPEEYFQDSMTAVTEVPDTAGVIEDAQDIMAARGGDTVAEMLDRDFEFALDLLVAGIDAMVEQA
Procedure: FIG. 2: Dose-response curve for PI-dependent gene expression. The cell line CHO-PIT1-SEAP was grown for 48 h at different PI concentrations (ng/ml). The relative SEAP production is shown over 5 orders of magnitude of PI concentration.
Chinese hamster ovary cells (CHO-K1, ATCC: CCL 61), Baby hamster kidney cells (BHK-21, ATCC: CRL-8544), and HeLa cells (ATCC: CRL-7923) as well as stable cell lines CHO-PIT1, CHO-PIT2, CHO-TWIN195, CHO-TWIN1108 and CHO-PIT1-SEAP were cultured as described before (Fussenegger et al., 1998, Nat. Biotechnol. 16,468-472) in the presence of appropriate antibiotics: G418 400 μg/ml; zeocin 100 μg/ml. Optimized CaPO4 protocols were used for high efficiency transient transfection of all cell lines (id). Transient transfected cells were routinely analyzed after 48 h for GFP or SEAP expression using fluorescence microscopy and p-nitrophenolphosphate-based light absorbance timecourse, respectively, as described before (Fussenegger et al., 1998, Nat. Biotechnol. 16, 468-472; Berger et al., 1988, Gene 66, 1-10 b). For construction of stable CHO-PIT and CHO-TWIN cell lines, CHO-K1 was cotransfected either with pMF156 or pTWIN1 and pSV2neo carrying the G418 resistance gene. CHO-PIT1-SEAP was constructed by cotransfection of pMF172 and pZeoSV2 (Invitrogen). For assessment of dose-response characteristics of PPIR -regulated gene expression, CHO-PIT1-SEAP were cultured at cell densities of 150,000/ml for 48 at various PI concentrations. The mixed populations were cloned using FACS-mediated single-cell-sorting (FACStar^Plus; Beckton Dickinson). Gel retardation assay were performed as described (Salah-Bey et al., 1995, supra) using Pip purified from an overproducing strain of E. coli. Pip (0.02 pmol) was titrated with a range of antibiotic concentrations in a reaction volume of 20 μl. […]
The levels of PPIR -regulated gene expression could be controlled by varying the concentrations of PI used for induction. This was assessed using a stable CHO cell line (CHO-PIT1-SEAP) which expresses PPIR -SEAP (pMF172) and contains also a constitutive PIT expression vector (pMF156). […]

PIT/PPIR system [2] = molecular target: T1, PIT/PPIR system; experiment: SEAP reporter assay, stable CHO-PIT1/CHO-PIT2 transiently transfected with pMF172; format: cell-based
Procedure: Chinese hamster ovary cells (CHO-K1, ATCC: CCL 61), Baby hamster kidney cells (BHK-21, ATCC: CRL-8544), and HeLa cells (ATCC: CRL-7923) as well as stable cell lines CHO-PIT1, CHO-PIT2, CHO-TWIN195, CHO-TWIN1108 and CHO-PIT1-SEAP were cultured as described before (Fussenegger et al., 1998, Nat. Biotechnol. 16,468-472) in the presence of appropriate antibiotics: G418 400 μg/ml; zeocin 100 μg/ml. Optimized CaPO4 protocols were used for high efficiency transient transfection of all cell lines (id). Transient transfected cells were routinely analyzed after 48 h for GFP or SEAP expression using fluorescence microscopy and p-nitrophenolphosphate-based light absorbance timecourse, respectively, as described before (Fussenegger et al., 1998, Nat. Biotechnol. 16, 468-472; Berger et al., 1988, Gene 66, 1-10 b). For construction of stable CHO-PIT and CHO-TWIN cell lines, CHO-K1 was cotransfected either with pMF156 or pTWIN1 and pSV2neo carrying the G418 resistance gene. CHO-PIT1-SEAP was constructed by cotransfection of pMF172 and pZeoSV2 (Invitrogen). For assessment of dose-response characteristics of PPIR -regulated gene expression, CHO-PIT1-SEAP were cultured at cell densities of 150,000/ml for 48 at various PI concentrations. The mixed populations were cloned using FACS-mediated single-cell-sorting (FACStar^Plus; Beckton Dickinson). Gel retardation assay were performed as described (Salah-Bey et al., 1995, supra) using Pip purified from an overproducing strain of E. coli. Pip (0.02 pmol) was titrated with a range of antibiotic concentrations in a reaction volume of 20 μl. Protein solutions were pre-incubated at room temperature for 15 min. in the absence or presence of PI or its derivative quinupristin in a buffer containing 10 mM Tris (pH 7.8), 10 mM MgCl2, 300 mM NaCl, 2 mM DTT and 10% glycerol. An EcoRI-HindII PPTR fragment (0.02 pmol) containing three Pip binding sites (radiolabelled using α-^32 P)dATP was added and incubated for 15 min. To minimize nonspecific protein binding and increase protein stability, 2 μg of poly dIdC and 20 μg BSA were included in the incubation mix. Protein-DNA complexes were separated on 5% polyacrylamide,TBE gels and visualized by autoradiography.
Five different sources of pristinamycin were used: The two therapeutic forms Pyostacin™ and Synercid™, pristinamycin discs, and the single compounds pristinamycin I (PI) and pristinamycin II (PII). Pyostacin™ pills (500 mg) were ground in a mortar and solubilized in DMSO or water at a stock concentration of 50 mg/ml. Synercid™ (RP 59500; Lot Nr. CB06253) was provided by Aventis in injection-ready vials containing 500 mg lyophilized antibiotic which was reconstituted in 5 ml of 5% glucose solution and frozen at -20° C. Individual pristinamycin compounds PI and PII (identical to virginiamycin M1 (VM1); Sigma ref. V2753) were solubilized in DMSO at a concentration of 50 mg/ml and kept at -20° C. Antibiotic discs containing 15 μg pristinamycin or virginiamycin (bioMerieux, ref. 54552; bioMerieux, ref. 54612) were soaked in 1 ml cell culture medium at 4i C for up to 24 h. Virginiamycin consists of virginiamnycin S1 (VS1), the PI analogue, and virginiamycin M1, which is identical in structure to PII (Barri re et al., 1994, supra). 2 μg/ml of streptogramin B was routinely used for regulation studies in cell culture. The concentration of individual streptogramin components was calculated based on their fixed 70:30 ratio (w/w; PII/VM1 /dalfopristin: PI/VS1 /quinupristin). For control experiments TET and doxycycline (DOX) were used either as discs (30 μg/disc, bioM.quadrature.rieux ref. 54882 (TET) and ref. 54172 (DOX)) or as powder (Sigma refs. T3383 and D9891).
Table 4: Pristinamycin I- (PI) dependent SEAP production of PIT- (PI-dependent transactivator) expressing stable cell lines CHO-PIT1 and CHO-PIT2 transiently transfected with the SEAP-encoding, PI-responsive reporter plasmid pMF172.
Table 5: Regulation potential of different streptogramins. […]

Substance: pristinamycin I [PI]
- PI concentration at which PIT/PPIR is fully induced (PIT/PPIR system [1]): < 10 ng/mL
- PI concentration at which PIT/PPIR is repressed (lowest SEAP expression) (PIT/PPIR system [1]): > 500 ng/mL
- PI concentration window in which gene expression can be adjusted (PIT/PPIR system [1]): 10 to 500 ng/mL
- Induction factor (ratio of SEAP activity without PI to SEAP activity with PI) (PIT/PPIR system [2]; CHO-PIT1): 13
- SEAP Production (%) (PIT/PPIR system [2]; CHO-PIT1 + pMF172, 48 h, 2 μg/ml of group B component, no streptogramin = 100): 8.06 ± 0.05%
- SEAP Production (%) (PIT/PPIR system [2]; CHO-PIT1 + pMF172, +PI 2 μg/ml, -PI = 100): 7.50 ± 2.32%
- Induction factor (ratio of SEAP activity without PI to SEAP activity with PI) (PIT/PPIR system [2]; CHO-PIT2): 8
- SEAP Production (%) (PIT/PPIR system [2]; CHO-PIT2 + pMF172, +PI 2 μg/ml, -PI = 100): 12.7 ± 3.57%
- Reversibility of PI-responsive SEAP regulation (PIT/PPIR system [2]; CHO-PIT derivatives, repeated cycles of addition and withdrawal): fully reversible

— US6287813A, “Antibiotic-based gene regulation system” (Cistronics Cell Technology GmbH, priority 1999, dated 2001)
